Reference: US7745493B2, “Methods of treating tardive dyskinesia and other movement disorders” (priority 1998, dated 2010)

Key:
Type in all cases: in vivo, human
[1] = test system: person with extremely severe tardive dyskinesia and dystonia; experiment: Case Report 4: patient self-report of TD treatment effects (weekly log); details: for Memory: Memory and concentration / Well-being: General well being: 10 is best; for Side effects: 10 is none; for Balance: Difficulty maintaining balance / Face/tongue: Severity of face and tongue movements / Sweating / Trunk: Severity of trunk movements: 10 is worst
From the text: A person had extremely severe tardive dyskinesia and dystonia, as a result of over 15 years of treatment of bipolar disorder with lithium and an assortment of neuroleptics. Their involuntary movements consisted of forced extension of the trunk, torsion of the lower legs, plantar flexion of the left foot, chorea of both arms, writhing of the tongue and grimacing. In addition, they had profuse sweating associated with the involuntary movements. To sit still in a chair, they had to forcefully grip both arms. In the chair, forced extension of the trunk practically lifted them out of the chair. Their trunk and leg movements led to impaired balance, with a staggering gait and frequent near-falls. The continual severe movements were associated with impairment in concentration, which made their work less efficient. By virtue of talent and intelligence, however, they were able to work competitively as a software engineer. Because their bipolar disorder remained an active problem, continued neurolepric treatment was necessary to maintain their mental health. They were maintained on lithium carbonate 300 mg three times a day, and risperidone 4 mg per day.
Their movement disorder had been treated with benzodiazepines, anticholinergics, and dopamine agonists, all without meaningful benefit. They were then treated with acamprosate, first at a dosage of 333 mg three times a day, and then at a dosage of 666 mg three times a day. Acamprosate therapy was then augmented with magnesium sulfate, 300 mg three times a day.
The patient maintained a weekly log of symptoms, which is reproduced here as Table 4. […] For several of their symptoms—trunk movement, balance, and sweating 666 mg of acamprosate three times a day of acamprosate was more efficacious than 333 mg three • 2) The addition of magnesium was associated with further improvement in several symptoms, i.e., movements of the face and tongue, neck and limbs; • 3) Benefits of acamprosate increased with continued therapy; • 4) Mental function, as indicated by subjective memory, improved along with the involuntary movements; • 5) The addition of memantine aggravated the involuntary movements.

[2] = test system: person two with long-standing TD; experiment: Rey Auditory-Verbal Learning Test 15-items (Case 1); details: ON drug
Description: On acamprosate, the patient was able to sustain concentration for prolonged periods. […] The patient's cognitive improvement was also assessed using formal neuropsychological measures. The patient was tested while on the drug, then taken off of the drug and tested two days later. On the drug, the patient was able to recall 13 of the 15 items after a short delay as well as 13 of the 15 items after a long delay, as measured by the Rey Auditory Verbal Learning Test. This was in comparison to the patient's ability while off the drug to recall only 7 of the 15 items after a short delay as well as 8 of the items after a long delay in tests performed. In addition, the patient was able to recognize all 15 of the items while on acamprosate but while off the drug (and while having been off of memantine for over 2 months) the patient could only recognize 10 of the items. The order of testing would give the advantage of familiarity to the off-drug condition. Nonetheless, the difference in favor of the on-drug condition was substantial.
(§1) The following tables report on the results of the neuropsychological tests (Drug I is memantine and Drug II is acamprosate): […]

[3] = test system: patients with dyskinetic movements (TD, tics); experiment: Inventor's overall clinical experience, cases 1-6
From the text: The ratio of acamprosate to magnesium can be varied to optimize the therapeutic synergy of the two ingredients. […] At typical therapeutic dosages of acetylhomotaurinate, the amount of magnesium is too low to have therapeutically-relevant effects on glutamate transmission. In my experience, I have had excellent therapeutic results from combining a 2 gram daily dosage of acamprosate with 1 gram of elemental magnesium, given as a salt or chelate. […] Allowing for variations in individual response, and variations in the intestinal absorption of both acamprosate and magnesium, I assert that the optimal ratio of mg:acetylhomotaurinate for an individual patient will be somewhere between 1:6 and 1:1. […] Although magnesium N-acetylhomotaurinate may be slightly more efficacious than calcium N-acetylhomotaurinate for treatment of tic disorders, in the present application we are effectively increasing the magnesium content of acamprosate and related compounds by administering magnesium ion (as a salt or chelate) in combination with a salt of N-acetylhomotaurinate, because there is a significant benefit to administering a higher ratio of magnesium to acamprosate than is present in the magnesium salt of acamprosate.
Relief of symptoms began within 48 hours of administration of acamprosate, and, if a patient discontinued acamprosate, symptoms returned immediately. […]

[4] = test system: person two with long-standing TD; experiment: Finger Tapping (Case 1); details: ON drug, higher score better
From the text: as §1

[5] = week 1, regimen 1: 333 mg three times a day
[6] = week 2, regimen 2: 666 mg three times a day
[7] = of 15 items, higher score better

CC(=O)NCCCS(=O)(=O)O [acamprosate, calcium N-acetylhomotaurinate]
Limbs [1, 5]: 6
Neck [1, 5]: 7
Memory: Memory and concentration [1, 5]: 9
Well-being: General well being [1, 5]: 8
Side effects [1, 5]: 7
Balance: Difficulty maintaining balance [1, 5]: 7
Face/tongue: Severity of face and tongue movements [1, 5]: 5
Sweating [1, 5]: 8
Trunk: Severity of trunk movements [1, 5]: 8
Limbs [1, 6]: 7
Neck [1, 6]: 7
Memory: Memory and concentration [1, 6]: 9
Well-being: General well being [1, 6]: 8
Side effects [1, 6]: 7
Balance: Difficulty maintaining balance [1, 6]: 5
Face/tongue: Severity of face and tongue movements [1, 6]: 7
Sweating [1, 6]: 5
Trunk: Severity of trunk movements [1, 6]: 6
RAVLT List A Trial 1 ([2]; higher score better): 10
RAVLT List A Trial 5 ([2]; higher score better): 14
RAVLT List B ([2]; higher score better): 8
Rey Auditory Verbal Learning Test List A 1-5 total (75 max) ([2]; higher score better): 63
RAVLT False Positive ([2]; lower score better): 1
RAVLT Intrusions ([2]; lower score better): 0
RAVLT Perseverations ([2]; lower score better): 5
RAVLT Long-Delay Free Recall [2, 7]: 13
RAVLT Recognition Hits [2, 7]: 15
RAVLT Short-Delay Free Recall [2, 7]: 13
time to beginning of relief of symptoms [3]: ≤ 48 h

CC12CC3CC(C)(C1)CC(N)(C3)C2 [memantine]
Finger Tapping DH [4]: DH = 59.3
Finger Tapping NDH [4]: NDH = 48.5
